Measurements as given in ChEMBL document CHEMBL2331470 (J Med Chem, 2013).
pIC50: −log10 of the molar value. Activity calls are given as the source filed them. The calls are words filed in the database; no cut-off is given here.

Assays:
Histone deacetylase 4 = Histone deacetylase 4 (Homo sapiens, UniProt P56524); assay: Inhibition of HDAC4 (unknown origin) assessed as fluorescence intensity measured after 60 mins incubation at room temperature by trypsin-free microfluidic lab-on-a-chip assay
Histone deacetylase 8 = molecular target: T1, Histone deacetylase 8 (Homo sapiens, UniProt Q9BY41); assay: Inhibition of HDAC8 (unknown origin) assessed as fluorescence intensity measured after 60 mins incubation at room temperature by trypsin-free microfluidic lab-on-a-chip assay
T1 sequence (Q9BY41 whole entry): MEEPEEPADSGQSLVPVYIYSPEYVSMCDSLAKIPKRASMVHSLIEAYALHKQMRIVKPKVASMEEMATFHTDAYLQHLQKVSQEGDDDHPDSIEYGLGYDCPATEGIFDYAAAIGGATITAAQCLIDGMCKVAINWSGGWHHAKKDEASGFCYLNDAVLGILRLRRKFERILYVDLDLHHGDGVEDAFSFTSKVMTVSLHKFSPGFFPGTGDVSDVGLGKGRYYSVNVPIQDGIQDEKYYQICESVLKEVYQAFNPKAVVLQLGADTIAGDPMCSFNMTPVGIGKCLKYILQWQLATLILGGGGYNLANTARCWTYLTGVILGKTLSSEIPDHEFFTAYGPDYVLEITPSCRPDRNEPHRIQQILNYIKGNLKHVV

[1] = molecular target: T2, Protein deacetylase HDAC6 (Homo sapiens, UniProt Q9UBN7); assay: Inhibition of HDAC6 (unknown origin) assessed as fluorescence intensity measured after 60 mins incubation at room temperature by trypsin-free microfluidic lab-on-a-chip assay
T2 sequence (Q9UBN7 whole entry): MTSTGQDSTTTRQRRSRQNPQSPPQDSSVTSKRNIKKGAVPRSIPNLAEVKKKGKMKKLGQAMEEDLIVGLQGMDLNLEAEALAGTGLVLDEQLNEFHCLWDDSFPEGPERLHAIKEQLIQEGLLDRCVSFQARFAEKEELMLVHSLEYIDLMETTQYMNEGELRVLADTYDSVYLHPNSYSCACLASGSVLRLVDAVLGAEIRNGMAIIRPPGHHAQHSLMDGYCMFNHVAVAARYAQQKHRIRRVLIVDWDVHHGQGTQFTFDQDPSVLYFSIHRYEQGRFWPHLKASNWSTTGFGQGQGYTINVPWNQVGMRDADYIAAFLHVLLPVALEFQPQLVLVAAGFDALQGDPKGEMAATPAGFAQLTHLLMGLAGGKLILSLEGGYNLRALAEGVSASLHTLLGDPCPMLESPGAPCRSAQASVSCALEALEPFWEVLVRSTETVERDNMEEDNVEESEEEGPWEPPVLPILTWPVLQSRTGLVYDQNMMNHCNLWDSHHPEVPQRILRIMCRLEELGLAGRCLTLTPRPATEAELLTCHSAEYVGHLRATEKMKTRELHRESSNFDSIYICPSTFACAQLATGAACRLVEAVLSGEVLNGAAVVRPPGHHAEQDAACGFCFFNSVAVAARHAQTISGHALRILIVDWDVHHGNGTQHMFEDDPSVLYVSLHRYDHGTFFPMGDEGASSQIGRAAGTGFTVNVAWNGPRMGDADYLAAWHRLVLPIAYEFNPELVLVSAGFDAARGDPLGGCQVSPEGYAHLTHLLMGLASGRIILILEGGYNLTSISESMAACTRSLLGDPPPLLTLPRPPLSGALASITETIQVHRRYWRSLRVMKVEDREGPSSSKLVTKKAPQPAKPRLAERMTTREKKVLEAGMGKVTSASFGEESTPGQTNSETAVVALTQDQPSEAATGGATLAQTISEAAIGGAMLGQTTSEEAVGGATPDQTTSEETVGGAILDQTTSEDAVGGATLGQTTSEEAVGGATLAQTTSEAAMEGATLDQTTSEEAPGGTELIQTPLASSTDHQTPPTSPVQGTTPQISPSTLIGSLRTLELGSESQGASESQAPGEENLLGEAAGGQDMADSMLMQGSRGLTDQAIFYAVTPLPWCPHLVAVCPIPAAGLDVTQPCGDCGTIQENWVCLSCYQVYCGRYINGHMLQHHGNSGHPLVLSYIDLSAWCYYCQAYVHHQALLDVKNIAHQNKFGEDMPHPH

Histone deacetylase 1 = Histone deacetylase 1 (Homo sapiens, UniProt Q13547); assay: Inhibition of HDAC1 (unknown origin) assessed as fluorescence intensity measured after 60 mins incubation at room temperature by trypsin-free microfluidic lab-on-a-chip assay
Histone deacetylase 1, sequence (Q13547 whole entry): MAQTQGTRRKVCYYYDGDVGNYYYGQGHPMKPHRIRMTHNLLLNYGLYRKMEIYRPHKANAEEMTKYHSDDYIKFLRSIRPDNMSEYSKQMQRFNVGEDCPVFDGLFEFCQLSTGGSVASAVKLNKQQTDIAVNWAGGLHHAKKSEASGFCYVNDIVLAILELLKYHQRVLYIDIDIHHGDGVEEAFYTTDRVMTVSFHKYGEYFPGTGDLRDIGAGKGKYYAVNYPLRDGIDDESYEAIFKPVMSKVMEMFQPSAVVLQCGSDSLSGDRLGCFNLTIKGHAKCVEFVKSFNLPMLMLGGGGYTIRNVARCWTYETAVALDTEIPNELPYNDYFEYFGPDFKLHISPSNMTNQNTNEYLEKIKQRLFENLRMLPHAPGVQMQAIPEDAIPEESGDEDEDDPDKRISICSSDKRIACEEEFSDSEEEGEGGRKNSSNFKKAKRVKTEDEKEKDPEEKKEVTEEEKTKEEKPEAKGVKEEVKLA

Histone deacetylase 9 = Histone deacetylase 9 (Homo sapiens, UniProt Q9UKV0); assay: Inhibition of HDAC9 (unknown origin) assessed as fluorescence intensity measured after 60 mins incubation at room temperature by trypsin-free microfluidic lab-on-a-chip assay
Histone deacetylase 9, sequence (Q9UKV0 whole entry): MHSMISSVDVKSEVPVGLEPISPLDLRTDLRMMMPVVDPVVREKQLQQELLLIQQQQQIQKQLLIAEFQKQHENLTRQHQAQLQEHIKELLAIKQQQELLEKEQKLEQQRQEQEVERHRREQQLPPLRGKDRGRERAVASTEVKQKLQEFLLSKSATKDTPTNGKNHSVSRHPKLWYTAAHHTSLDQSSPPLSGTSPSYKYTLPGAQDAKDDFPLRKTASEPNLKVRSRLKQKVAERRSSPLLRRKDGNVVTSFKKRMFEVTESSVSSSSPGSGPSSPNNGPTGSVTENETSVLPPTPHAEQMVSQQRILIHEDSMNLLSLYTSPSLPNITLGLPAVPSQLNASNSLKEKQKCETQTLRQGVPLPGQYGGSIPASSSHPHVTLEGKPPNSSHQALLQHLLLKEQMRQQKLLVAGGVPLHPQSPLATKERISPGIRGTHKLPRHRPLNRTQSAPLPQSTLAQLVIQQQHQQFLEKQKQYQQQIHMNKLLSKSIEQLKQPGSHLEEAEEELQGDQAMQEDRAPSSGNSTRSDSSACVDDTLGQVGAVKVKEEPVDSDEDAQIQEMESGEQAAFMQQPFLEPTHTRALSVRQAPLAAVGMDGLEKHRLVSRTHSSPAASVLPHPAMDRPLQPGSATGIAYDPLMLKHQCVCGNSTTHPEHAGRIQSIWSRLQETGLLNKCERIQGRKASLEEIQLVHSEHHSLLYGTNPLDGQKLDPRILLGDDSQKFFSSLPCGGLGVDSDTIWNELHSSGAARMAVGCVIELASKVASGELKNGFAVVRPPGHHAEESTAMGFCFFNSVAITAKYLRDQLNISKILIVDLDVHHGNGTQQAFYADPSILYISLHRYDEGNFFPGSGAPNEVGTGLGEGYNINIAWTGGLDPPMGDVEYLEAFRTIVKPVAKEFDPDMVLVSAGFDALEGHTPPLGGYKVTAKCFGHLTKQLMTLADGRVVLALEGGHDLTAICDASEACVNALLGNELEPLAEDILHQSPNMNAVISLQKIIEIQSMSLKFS

Histone deacetylase 2 = Histone deacetylase 2 (Homo sapiens, UniProt Q92769); assay: Inhibition of HDAC2 (unknown origin) assessed as fluorescence intensity measured after 60 mins incubation at room temperature by trypsin-free microfluidic lab-on-a-chip assay
Histone deacetylase 2, sequence (Q92769 whole entry): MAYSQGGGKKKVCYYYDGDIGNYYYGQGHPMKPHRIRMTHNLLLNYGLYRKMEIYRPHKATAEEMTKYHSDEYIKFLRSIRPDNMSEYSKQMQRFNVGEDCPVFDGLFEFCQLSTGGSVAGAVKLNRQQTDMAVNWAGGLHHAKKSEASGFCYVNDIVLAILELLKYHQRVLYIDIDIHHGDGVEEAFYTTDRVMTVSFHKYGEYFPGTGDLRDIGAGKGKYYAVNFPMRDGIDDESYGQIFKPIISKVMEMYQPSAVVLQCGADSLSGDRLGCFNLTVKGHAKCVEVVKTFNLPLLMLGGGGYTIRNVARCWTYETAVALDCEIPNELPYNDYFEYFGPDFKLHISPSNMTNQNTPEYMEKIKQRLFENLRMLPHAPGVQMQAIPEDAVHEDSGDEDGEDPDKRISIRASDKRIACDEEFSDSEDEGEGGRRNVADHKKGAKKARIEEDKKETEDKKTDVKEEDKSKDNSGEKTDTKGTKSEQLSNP

Histone deacetylase 3 [2] = molecular target: T3, Histone deacetylase 3 (Homo sapiens, UniProt O15379); assay: Inhibition of HDAC3 in human HeLa cells assessed as increase in acetylated H3 at 30 uM measured after 24 hrs by Western blotting analysis; type: cell-based
T3 sequence (O15379 whole entry): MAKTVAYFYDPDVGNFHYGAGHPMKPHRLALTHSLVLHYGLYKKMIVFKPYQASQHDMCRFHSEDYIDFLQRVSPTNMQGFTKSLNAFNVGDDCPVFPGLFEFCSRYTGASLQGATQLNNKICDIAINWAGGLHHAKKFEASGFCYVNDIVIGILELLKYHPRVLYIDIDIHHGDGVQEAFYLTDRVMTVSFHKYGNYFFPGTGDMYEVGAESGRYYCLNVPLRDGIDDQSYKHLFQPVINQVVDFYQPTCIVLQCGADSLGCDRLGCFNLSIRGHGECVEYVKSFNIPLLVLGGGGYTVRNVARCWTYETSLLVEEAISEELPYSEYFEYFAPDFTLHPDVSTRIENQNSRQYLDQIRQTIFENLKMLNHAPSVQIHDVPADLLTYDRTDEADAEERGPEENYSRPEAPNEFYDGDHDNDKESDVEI

[3] = molecular target: T4, Protein deacetylase HDAC6 (Homo sapiens) (UniProt Q9UBN7); assay: Inhibition of HDAC6 in human HeLa cells assessed as increase in acetylated alpha-tubulin measured after 24 hrs by Western blotting analysis; type: cell-based
T4 sequence (whole entry): T2 sequence (Q9UBN7 whole entry)

Histone deacetylase 5 = Histone deacetylase 5 (Homo sapiens, UniProt Q9UQL6); assay: Inhibition of HDAC5 (unknown origin) assessed as fluorescence intensity measured after 60 mins incubation at room temperature by trypsin-free microfluidic lab-on-a-chip assay
Histone deacetylase 5, sequence (Q9UQL6 whole entry): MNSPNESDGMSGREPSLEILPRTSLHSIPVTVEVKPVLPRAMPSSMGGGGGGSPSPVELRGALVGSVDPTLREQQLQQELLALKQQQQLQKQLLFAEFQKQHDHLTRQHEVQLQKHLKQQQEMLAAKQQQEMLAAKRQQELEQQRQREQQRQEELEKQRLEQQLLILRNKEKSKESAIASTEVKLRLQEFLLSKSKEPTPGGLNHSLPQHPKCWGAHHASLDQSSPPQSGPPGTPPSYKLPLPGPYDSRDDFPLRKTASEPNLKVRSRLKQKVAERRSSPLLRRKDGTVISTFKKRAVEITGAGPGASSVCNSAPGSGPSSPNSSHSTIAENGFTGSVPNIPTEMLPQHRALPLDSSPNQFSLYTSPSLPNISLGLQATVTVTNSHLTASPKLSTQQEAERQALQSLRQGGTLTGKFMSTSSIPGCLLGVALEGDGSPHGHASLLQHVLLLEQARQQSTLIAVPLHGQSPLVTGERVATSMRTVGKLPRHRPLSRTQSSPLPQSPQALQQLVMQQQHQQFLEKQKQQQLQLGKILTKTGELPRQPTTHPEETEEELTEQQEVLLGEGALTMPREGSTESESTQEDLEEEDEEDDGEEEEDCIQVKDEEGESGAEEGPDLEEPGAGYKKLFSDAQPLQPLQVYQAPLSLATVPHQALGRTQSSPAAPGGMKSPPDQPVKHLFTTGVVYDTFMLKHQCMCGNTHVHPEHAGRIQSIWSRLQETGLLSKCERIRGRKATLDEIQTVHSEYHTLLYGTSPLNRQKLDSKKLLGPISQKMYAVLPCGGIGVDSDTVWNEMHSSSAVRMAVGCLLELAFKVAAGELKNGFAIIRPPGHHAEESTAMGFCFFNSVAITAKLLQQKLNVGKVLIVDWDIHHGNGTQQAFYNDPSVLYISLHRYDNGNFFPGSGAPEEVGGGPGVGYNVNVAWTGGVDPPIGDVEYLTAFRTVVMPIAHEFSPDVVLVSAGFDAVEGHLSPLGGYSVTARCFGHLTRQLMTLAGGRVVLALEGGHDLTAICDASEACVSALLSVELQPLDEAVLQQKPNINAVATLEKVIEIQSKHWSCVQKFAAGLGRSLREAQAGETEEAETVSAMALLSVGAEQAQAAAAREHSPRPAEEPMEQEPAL

Histone deacetylase 3 [4] = molecular target: T3, Histone deacetylase 3; assay: Inhibition of HDAC3 (unknown origin) assessed as fluorescence intensity measured after 60 mins incubation at room temperature by trypsin-free microfluidic lab-on-a-chip assay

Histone deacetylase 4, sequence (P56524 whole entry): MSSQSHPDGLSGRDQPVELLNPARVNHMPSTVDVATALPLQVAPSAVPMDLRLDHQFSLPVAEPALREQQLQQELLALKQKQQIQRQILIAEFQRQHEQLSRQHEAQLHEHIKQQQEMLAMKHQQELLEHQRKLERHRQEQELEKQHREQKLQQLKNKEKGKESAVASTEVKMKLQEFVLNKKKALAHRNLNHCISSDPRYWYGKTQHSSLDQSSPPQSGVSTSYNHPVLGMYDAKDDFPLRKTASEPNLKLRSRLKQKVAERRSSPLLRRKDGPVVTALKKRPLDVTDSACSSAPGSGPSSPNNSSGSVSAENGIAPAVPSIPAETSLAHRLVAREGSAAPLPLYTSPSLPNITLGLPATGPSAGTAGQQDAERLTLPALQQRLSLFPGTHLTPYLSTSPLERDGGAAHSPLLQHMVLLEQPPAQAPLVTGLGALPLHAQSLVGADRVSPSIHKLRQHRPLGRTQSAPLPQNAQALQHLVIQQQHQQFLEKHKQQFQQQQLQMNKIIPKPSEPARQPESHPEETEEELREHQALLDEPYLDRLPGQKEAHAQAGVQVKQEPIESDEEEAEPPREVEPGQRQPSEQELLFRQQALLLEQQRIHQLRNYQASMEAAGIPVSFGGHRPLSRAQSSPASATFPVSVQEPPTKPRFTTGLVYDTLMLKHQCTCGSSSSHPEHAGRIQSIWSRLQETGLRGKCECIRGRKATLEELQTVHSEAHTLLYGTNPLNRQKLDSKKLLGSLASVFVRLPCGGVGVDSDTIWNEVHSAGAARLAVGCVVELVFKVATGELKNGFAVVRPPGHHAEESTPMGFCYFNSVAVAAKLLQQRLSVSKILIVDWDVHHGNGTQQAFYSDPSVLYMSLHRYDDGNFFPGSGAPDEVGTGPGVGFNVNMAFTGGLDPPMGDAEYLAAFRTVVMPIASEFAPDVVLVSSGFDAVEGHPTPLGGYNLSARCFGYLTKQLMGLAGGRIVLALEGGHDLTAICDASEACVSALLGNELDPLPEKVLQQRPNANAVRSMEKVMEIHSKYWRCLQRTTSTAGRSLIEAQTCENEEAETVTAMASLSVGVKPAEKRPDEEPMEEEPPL

| SMILES | pIC50 (Histone deacetylase 4) | pIC50 (Histone deacetylase 8) | pIC50 [1] | pIC50 (Histone deacetylase 1) | pIC50 (Histone deacetylase 9) | pIC50 (Histone deacetylase 2) | inhibition (Histone deacetylase 3 [2]) | inhibition [3] | pIC50 (Histone deacetylase 5) | pIC50 (Histone deacetylase 3 [4]) |
| --- | --- | --- | --- | --- | --- | --- | --- | --- | --- | --- |
| O=C(NO)c1ccc(C(=O)Nc2ccccc2)cc1 | < 4.48 | 6.16 | 7.43 |  |  |  |  |  |  |  |
| O=C(NO)c1ccccc1 [BENZOHYDROXAMATE] | < 4.48 | 5.72 | 6.94 | 5.33 | < 4.48 | 5.10 | inactive | Active | < 4.48 | 5.11 |
| O=C(NO)c1ccc(C(=O)NCc2ccccc2)cc1 | < 4.48 | 5.99 | 8.15 |  |  | 6.42 |  |  |  |  |
| CN1CCN(CCNC(=O)c2ccc(C(=O)NO)cc2)CC1 | < 4.48 | 4.68 | 5.87 |  |  |  |  |  |  |  |
| O=C(NO)C1CCCCC1 | < 4.48 | 5.43 | 6.42 |  |  | < 4.48 |  |  |  |  |
| O=C(NO)c1ccc(C(=O)NCCc2ccccc2)cc1 | < 4.48 | 5.94 |  |  |  |  |  |  |  |  |
| CNC(=O)c1ccc(C(=O)NO)cc1 | < 4.48 | 5.71 | 7.55 |  |  |  | inactive | Active |  |  |
| O=C(/C=C/c1ccccc1)NO | 4.71 | 6.12 | 7.66 |  |  | 6.34 |  |  |  |  |
| O=C(CCc1ccccc1)NO | < 4.48 | 5.63 | 6.35 |  |  | 5.57 |  |  |  |  |
| O=C(NO)c1ccc(C(=O)NCCc2ccncc2)cc1 | < 4.48 | 5.88 | 8.10 |  |  |  |  |  |  |  |
| O=C(Cc1ccccc1)NO [PHENYLACETOHYDROXAMIC ACID] | < 4.48 | 4.93 |  |  |  | < 4.48 |  |  |  |  |
| O=C(NO)C1=CCCCC1 | 5.04 | 6.37 | 7.92 |  |  | 5.98 | inactive | Active |  |  |
| O=C(NO)C1=CCCC1 | 4.66 | 5.96 | 7.52 | 6.20 | < 4.48 | 5.75 | inactive | Dose-dependent effect | 4.74 | 6.16 |
